Results taken from ChEMBL document CHEMBL1201862, “PubChem BioAssay data set” (2004).
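Step 1: Grow cells in 96-well plates. Step 2: Expose to compound for 48 hours at 5 concentrations. Step 3: Interpolate endpoints linearly; if unreached, use highest concentration. GI50: concentration for 50% inhibition of growth.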 The source made the active and inactive calls. No stated cut-off is given here; in the data, active = GI50 up to about 1.1 µM and inactive = higher.

Key:
Experiment in all cases: DTP human tumour cell line panel, 48 h
786-0 = test system: 786-0
ACHN = test system: ACHN
HCT-116 = test system: HCT-116
HCT-15 = test system: HCT-15
HOP-62 = test system: HOP-62
LOX IMVI = test system: LOX IMVI
MDA-N = test system: MDA-N
NCI-H226 = test system: NCI-H226
NCI-H23 = test system: NCI-H23
NCI-H460 = test system: NCI-H460
NCI-H522 = test system: NCI-H522
OVCAR-3 = test system: OVCAR-3
OVCAR-5 = test system: OVCAR-5
PC-3 = test system: PC-3
RPMI-8226 = test system: RPMI-8226
SF-295 = test system: SF-295
SF-539 = test system: SF-539
SR = test system: SR
SW-620 = test system: SW-620
U-251 = test system: U-251

| Structure (SMILES) | GI50 (786-0) | GI50 (ACHN) | GI50 (HCT-116) | GI50 (HCT-15) [µM] | GI50 (HOP-62) | GI50 (LOX IMVI) | GI50 (MDA-N) | GI50 (NCI-H226) | GI50 (NCI-H23) | GI50 (NCI-H460) | GI50 (NCI-H522) | GI50 (OVCAR-3) | GI50 (OVCAR-5) | GI50 (PC-3) | GI50 (RPMI-8226) | GI50 (SF-295) | GI50 (SF-539) | GI50 (SR) | GI50 (SW-620) | GI50 (U-251) |
| --- | --- | --- | --- | --- | --- | --- | --- | --- | --- | --- | --- | --- | --- | --- | --- | --- | --- | --- | --- | --- |
| Oc1nc2cc(Cl)ccc2nc1/C(=N\Nc1ccccc1)C(O)c1ccc2c(c1)OCO2 (stereo not given) | > 100 µM (inactive) | > 100 µM (inactive) | > 100 µM (inactive) | > 100 | > 100 µM (inactive) | > 100 µM (inactive) | > 100 µM (inactive) | > 100 µM (inactive) | > 100 µM (inactive) | > 100 µM (inactive) | > 100 µM (inactive) | > 100 µM (inactive) | > 100 µM (inactive) | > 100 µM (inactive) | > 100 µM (inactive) | > 100 µM (inactive) | > 100 µM (inactive) | > 100 µM (inactive) | > 100 µM (inactive) | > 100 µM (inactive) |
| O=C(O)c1ccc(NNC(=O)c2cccc3c(=O)c4ccccc4[nH]c23)cc1 | > 100 µM (inactive) | 74.1 µM (inactive) | > 100 µM (inactive) | > 100 | > 100 µM (inactive) | 44.6 µM (inactive) | > 100 µM (inactive) | > 100 µM (inactive) | > 100 µM (inactive) | 92.9 µM (inactive) | 25.4 µM (inactive) | > 100 µM (inactive) | > 100 µM (inactive) | > 100 µM (inactive) | > 100 µM (inactive) | > 100 µM (inactive) | > 100 µM (inactive) | 93.5 µM (inactive) | > 100 µM (inactive) | 80.7 µM (inactive) |
| CC1C(=O)O[B-]2(c3ccccc3)Oc3ccccc3C=[N+]12 (stereo not given) | > 100 µM (inactive) | > 100 µM (inactive) | > 100 µM (inactive) | > 100 | > 100 µM (inactive) | > 100 µM (inactive) | > 100 µM (inactive) | > 100 µM (inactive) | > 100 µM (inactive) | > 100 µM (inactive) | > 100 µM (inactive) | > 100 µM (inactive) | > 100 µM (inactive) | > 100 µM (inactive) | > 100 µM (inactive) | > 100 µM (inactive) | > 100 µM (inactive) | > 100 µM (inactive) | > 100 µM (inactive) | > 100 µM (inactive) |
| CN(C)CCn1c(=O)c2ccc3c4c(nn3CCN(C)C)c3cc(N)ccc3n(c1=O)c24 | < 0.01 µM (active) | < 0.0161 µM (active) | < 0.0145 µM (active) | < 0.0169 | < 0.01 µM (active) | 0.0154 µM (active) | < 0.0239 µM (active) | 0.0791 µM (active) | < 0.01 µM (active) | < 0.01 µM (active) | 0.02 µM (active) | < 0.0151 µM (active) | < 0.027 µM (active) | < 0.0153 µM (active) | < 0.01 µM (active) | 0.0145 µM (active) | 0.0291 µM (active) | < 0.0103 µM (active) | < 0.0148 µM (active) | < 0.0111 µM (active) |
| COc1cc(/C=C/C(=O)O)ccc1O [FERULATE] | > 100 µM (inactive) | > 100 µM (inactive) | > 100 µM (inactive) | > 100 | > 100 µM (inactive) | > 100 µM (inactive) | > 100 µM (inactive) | > 100 µM (inactive) | > 100 µM (inactive) | > 100 µM (inactive) | > 100 µM (inactive) | > 100 µM (inactive) | > 100 µM (inactive) | > 100 µM (inactive) | > 100 µM (inactive) | > 100 µM (inactive) | > 100 µM (inactive) | > 100 µM (inactive) | > 100 µM (inactive) | > 100 µM (inactive) |
| CC1(O)CCC(C(C)(C)O)CC1 (stereo not given) [TERPIN] | > 100 µM (inactive) | > 100 µM (inactive) | > 100 µM (inactive) | > 100 | > 100 µM (inactive) | > 100 µM (inactive) | > 100 µM (inactive) | > 100 µM (inactive) | > 100 µM (inactive) | > 100 µM (inactive) | > 100 µM (inactive) | > 100 µM (inactive) | > 100 µM (inactive) | > 100 µM (inactive) | > 100 µM (inactive) | > 100 µM (inactive) | > 100 µM (inactive) | > 100 µM (inactive) | > 100 µM (inactive) | > 100 µM (inactive) |
